Measurements: PMC5384453, “A multi-functional PEGylated gold(III) compound: potent anti-cancer properties and self-assembly into nanostructures for drug co-delivery” (Chemical Science, 2016)

How the values were obtained:
A2780adr cells = test: Cellular uptake, gold content by ICP-MS; type: in vitro ADME, human; details: 2 μM, 37 °C
Description: The uptake of 1 and 3, and Au1a by cancer cells and non-tumorigenic cells was examined in terms of the gold content in the cell lysates using ICP-MS.
B from 20.1 to 25 min and returned to initial conditions and equilibrated for 3 minutes.
The flow rate was 0.4 mL/min and the injection volume was 2 µL. The UPLC-QTOF-MS chromatograms of 1, 3, 4 and solvent control in acetonitrile were also recorded for the interpretation of UPLC-QTOF-MS chromatograms of the cell lysate.
Cellular uptake experiments. HCT116, A2780 and A2780adr (2×10 5 cells), and MIHA and NCM460 (3.5×10 5 cells) cells were grown on 6-well plates at 37 °C under an atmosphere of 5% CO2 for 48 h. […]
Au1a (2 µM; with 1 vol% DMSO). […] An aliquot of the cell suspension was subjected to Bio-rad protein assay with a microtitre plate reader at the absorbance at 595 nm, using bovine serum albumin as the protein standard. […] The solution mixture was heated at 65 °C with shaking overnight, and the gold content was determined by ICP-MS. […]
then removed and washed with PBS solution. The cells were then incubated with culture medium containing nanostructures of 1 (2 µM) and CellEvent Caspase-3/7 Green ReadyProbes Reagent (30 µL), or Au1a (2 µM; with 1 vol% DMSO) and CellEvent Caspase-3/7 Green ReadyProbes Reagent (30 µL) at 37 °C under an atmosphere of 5% CO2. […]

[1] = Systemic toxicity in nude mice bearing HCT116 xenografts (body weight, H&E histopathology, blood biochemistry); type: in vivo; details: HCT116 xenograft nude mice
Description: The anti-tumor experiments using mice were approved by the animal ethics committees of Jinan University and The University of Hong Kong. […]
every 2 days for 24 days. The control group received equal volume of PBS only.
During the treatment period, the tumor volume and body weight of the nude mice were measured per two days. The tumor volume was calculated by the equation:
Volume (mm3) = l×w2/2, where l and w were the length and width of the tumor. At the end of the treatment, the nude mice were sacrificed and the tumor weight was […]
H&E staining and immunohistochemical (IHC) analysis of mice tissues. For […]
formaldehyde, embedded with paraffin and sectioned. Subsequently, the tissues were stained with hematoxylin and eosin for histological observation under an optical microscope (magnification: 10×). The expression of p53, Ki67, VEGFR2 and TUNEL was determined by IHC methods as reported previously. S7
Hematological analysis of nude mice bearing HCT116 xenograft. The blood samples of mice without bearing HCT116 xenograft and xenograft-bearing mice treated with 1, 3 and PBS control were collected. The plasma was obtained by centrifuging the blood sample with speed at 3000 rpm. The plasma was then subjected to hematological analysis to determine biochemical indexes of alanine aminotransferase (ALT), asparatate aminotransferase (AST), globulin (GLB), blood urea nitrogen (BUN), uric acid (UA), creatinine (CREA), lactate dehydrogenase (LDH) and creatine kinase (CK) in blood of the mice.
A2780cis xenograft nude mice model was constructed by injecting 2.5×10^6 cells to the right back flank of female BALB/c nude mice. When the tumor volume […]
animal study. The A2780cis xenograft nude mice were randomly divided into 2 groups (n = 5 per group). 1 in PBS (4 mg/kg) or PBS solvent control were injected to the nude mice by intravenous injection once every 2–3 days for 13 days. During the treatment period, the tumor volume and body weight of the nude mice were measured

HCT116 cells = test: Co-culture model of HCT116 and NCM460, Caspase-3/7 Green flow cytometry; type: cell-based, human; details: 24 h; for population percentage of apoptotic cells (Caspase-3/7 Green, corrected): HCT116 in co-culture with CMF2HC-stained NCM460, 2 μM
Description: (§1) This co-culture model treated with 1 for 24 h had 25.04 and 5.01% (Q2 and Q3 regions of Fig. S21a ^†; corrected) of HCT116 and NCM460 cells, respectively, undergoing apoptosis as determined by Caspase-3/7 Green Reagent staining and flow cytometric analysis (Fig. S21 ^†). This confirms the preferential induction of apoptosis by 1 of HCT116 cells over NCM460 cells in the co-culture model, regardless of the effect, if any, of the blue emissive CMF2HC dye.
(§2) atmosphere of 5% CO2. After reaching 80% confluency, the culture medium was
(§3) of 5% CO2 for 45 min. The solution was then removed. The stained NCM460 cells
(§4) the procedure described above.
(§5) right fore of BALB/c nude mice. When the tumor volume reached 70 mm3 after […]

NCM460 cells = test: as above; type: cell-based, human; details: 24 h; for population percentage of apoptotic cells (Caspase-3/7 Green, corrected): CMF2HC-stained NCM460 in co-culture with HCT116, 2 μM
Description: as §1, §2, §3, §4, §5

[2] = Zeta potential measurement of nanostructures in PBS; type: physicochemical
Source text: On the other hand, the almost neutral zeta potentials of the nanostructures of 1 and 2 validated the presence of PEG pendant in the shell of the nanostructures. The identity of gold species in the core of the nanostructures was supported by the good contrast of the core in the TEM images (Fig. 1c and S3a ^†) and energy-dispersive X-ray (EDX) spectra (Fig. 1f). […]
(MIHA), human normal liver cells (L02) and human normal gliocyte cells (CHEM-5) were maintained in Dulbecco’s modified Eagle’s medium with 10 vol% fetal bovine serum, ʟ-glutamine (2 mM) and penicillin/streptomycin (100 U/mL). […]
TOF/TOF™ Analyzer using α-cyano-4-hydroxycinnamic acid with sodium trifluoroacetate as the matrix. […]
Premier quadrupole time-of-flight tandem mass spectrometer. […]
Ultra performance […]
liquid chromatography (UPLC) measurements were performed on a Waters
ACQUITY UPLC H-Class System equipped with a photodiode array for detection.
Elemental analyses were performed on the Carlo Erba 1106 elemental analyzer at the Institute of Chemistry, Chinese Academy of Sciences, Beijing, China. […]
Dynamic light scattering (DLS) and zeta potential measurements were performed

[3] = Transmission electron microscopy of nanostructures; type: physicochemical; details: self-assembled in PBS
Source text: On the other hand, the almost neutral zeta potentials of the nanostructures of 1 and 2 validated the presence of PEG pendant in the shell of the nanostructures. The identity of gold species in the core of the nanostructures was supported by the good contrast of the core in the TEM images (Fig. 1c and S3a ^†) and energy-dispersive X-ray (EDX) spectra (Fig. 1f).
The gold content in NC1 was confirmed by EDX (Fig. 1g).

| Molecule | incubation time after which the amount in A2780adr cells decreases (A2780adr cells) | blood biochemistry (organ damage indicators) ([1]; 4 mg kg^–1 i.v., 24 days, ALT, GLB, BUN, CK for 1) | histopathological analysis of tissues (H&E) ([1]; i.v., 24 days (3: 4 mg kg^–1)) | population percentage of apoptotic cells (Caspase-3/7 Green, corrected) (HCT116 cells) | cells undergoing apoptosis (Caspase-3/7 Green, corrected) (HCT116 cells; co-culture with HCT116 pre-treated with CMF2HC dye, HCT116 cells) | population percentage of apoptotic cells (Caspase-3/7 Green, corrected) (NCM460 cells) | cells undergoing apoptosis (Caspase-3/7 Green, corrected) (NCM460 cells; co-culture with HCT116 pre-treated with CMF2HC dye, NCM460 cells) | Zeta potential [2] | diameter of nanostructures (TEM) [3] | mouse death / body weight ([1]; 2 or 4 mg kg^–1 i.v., 24 days) |
| --- | --- | --- | --- | --- | --- | --- | --- | --- | --- | --- |
| COC(=O)c1ccc(C2=C3C=CC(=N3)C(c3ccccc3)=c3ccc4[n]3[Au+][n]3c(ccc32)C(c2ccccc2)=C2C=CC(=N2)C=4c2ccccc2)cc1.[Cl-] [Compound 3, [Au(TPP–COOCH3)]^+] | 0.75 h | significant damage in the lung, liver and kidney of the mice | damage in normal lung, liver and kidney tissues |  |  |  |  |  |  |  |
| [Au(TPP–COO–PEG5000–OCH3)]Cl [Compound 1] |  |  |  | 25.3% | 25.04% | 4.1% | 5.01% | –0.1 ± 1.6 mV | ca. 120 nm | no mouse death or significant loss in body weight |
| [Au(TPP–CONH–PEG5000–OCH3)]Cl [Compound 2] |  |  |  |  |  |  |  | –0.7 ± 4.2 mV | ~200 nm |  |
| C1=Cc2nc1c(-c1ccccc1)c1ccc([n-]1)c(-c1ccccc1)c1nc(c(-c3ccccc3)c3ccc([n-]3)c2-c2ccccc2)C=C1.[Au+3].[Cl-] [Au1a, [Au(TPP)]Cl, reference compound] | 0.5 h |  |  | 54.6% |  | 29.3% |  |  |  |  |
